Tests used:
corn = experiment: Test C preemergence; type: in vivo, Zea mays; conditions: for Plant response rating (scale of 0 to 100 where 0 is no effect and 100 is complete control): Corn, preemergence; for Corn plant response rating (0 to 100): Preemergence, visual rating after 13 to 15 d
In short: (§1)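 Seeds were planted in loam soil plus sand and sprayed preemergence. In parallel, potted plants in a peat-based medium were sprayed postemergence at 2 to 18 cm (1- to 4-leaf stage). Compounds were formulated in non-phytotoxic solvent with surfactant.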

foxtail, green = experiment: Test D postemergence; type: in vivo, Setaria viridis; conditions: scale 0 to 100
In short: (§2)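 Seeds were sown in silt loam and sprayed preemergence with test chemicals in a non-phytotoxic solvent mixture containing surfactant. For postemergence tests, plants grown in peat-based medium to 2 to 18 cm (1- to 4-leaf stage) were sprayed with the same formulation. Injury was rated visually against untreated controls after 14 to 21 d in a controlled growth environment.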

lambsquarters = experiment: Test C preemergence; type: in vivo, Chenopodium album; conditions: for Plant response rating (scale of 0 to 100 where 0 is no effect and 100 is complete control): Lambsquarters, preemergence; for Lambsquarters plant response rating (0 to 100): Preemergence, visual rating after 13 to 15 d
In short: as §1

canarygrass = experiment: Test D postemergence; type: in vivo, Phalaris minor; conditions: scale 0 to 100
In short: as §2

windgrass = experiment: Test D preemergence; type: in vivo, Apera spica-venti; conditions: for Plant response rating: Windgrass: scale 0 to 100
In short: as §2

wheat, winter = experiment: Test D preemergence; type: in vivo, Triticum aestivum; conditions: for Plant response rating: Wheat, Winter: scale 0 to 100
In short: as §2

wheat, spring = experiment: Test D preemergence; type: in vivo, Triticum aestivum; conditions: for Plant response rating: Wheat, Spring: scale 0 to 100
In short: as §2

galium = experiment: Test C preemergence; type: in vivo, Galium aparine; conditions: for Plant response rating (scale of 0 to 100 where 0 is no effect and 100 is complete control): Galium, preemergence; for Galium plant response rating (0 to 100): Preemergence, visual rating after 13 to 15 d
In short: as §1

velvetleaf = experiment: Test C preemergence; type: in vivo, Abutilon theophrasti; conditions: for Velvetleaf plant response rating (0 to 100): Preemergence, visual rating after 13 to 15 d
In short: as §1

ragweed = experiment: Test C preemergence; type: in vivo, Ambrosia elatior; conditions: for Ragweed plant response rating (0 to 100): Preemergence, visual rating after 13 to 15 d; for Plant response rating (scale of 0 to 100 where 0 is no effect and 100 is complete control): Ragweed, preemergence
In short: as §1

oat, wild = experiment: Test D preemergence; type: in vivo, Avena fatua; conditions: for Plant response rating: Oat, Wild: scale 0 to 100
In short: as §2

chickweed = experiment: Test D postemergence; type: in vivo, Stellaria media; conditions: scale 0 to 100
In short: as §2

bromegrass, down = experiment: Test D preemergence; type: in vivo, Bromus tectorum; conditions: for Plant response rating: Bromegrass, Down: scale 0 to 100
In short: as §2

barley, spring = experiment: Test D preemergence; type: in vivo, Hordeum vulgare; conditions: for Plant response rating: Barley, Spring: scale 0 to 100
In short: as §2

barley, winter = experiment: Test D preemergence; type: in vivo, Hordeum vulgare; conditions: for Plant response rating: Barley, Winter: scale 0 to 100
In short: as §2

foxtail, giant = experiment: Test C preemergence; type: in vivo, Setaria faberii; conditions: for Plant response rating (scale of 0 to 100 where 0 is no effect and 100 is complete control): Foxtail, Giant, preemergence; for Foxtail, Giant plant response rating (0 to 100): Preemergence, visual rating after 13 to 15 d
In short: as §1

barnyardgrass = experiment: Test C preemergence; type: in vivo, Echinochloa crus-galli; conditions: for Plant response rating (scale of 0 to 100 where 0 is no effect and 100 is complete control): Barnyardgrass, preemergence; for Barnyardgrass plant response rating (0 to 100): Preemergence, visual rating after 13 to 15 d
In short: as §1

[1] = 16 g ai/ha, 0 is no effect, 100 is complete control

Compound: FC(F)(F)COc1nc(-c2ccccc2)nn1Cc1ccnc(C(F)(F)F)c1 [Compound 24]
- Plant response rating (scale of 0 to 100 where 0 is no effect and 100 is complete control) (corn; 125 g ai/ha): 25
- Plant response rating (scale of 0 to 100 where 0 is no effect and 100 is complete control) (corn; 250 g ai/ha): 40
- Corn plant response rating (0 to 100) (corn; 31 g ai/ha): 0
- Corn plant response rating (0 to 100) (corn; 62 g ai/ha): 10
- Plant response rating: Foxtail, Green (foxtail, green; 16 g ai/ha): 15
- Plant response rating: Foxtail, Green (foxtail, green; 31 g ai/ha): 25
- Plant response rating: Foxtail, Green (foxtail, green; 62 g ai/ha): 65
- Plant response rating: Foxtail, Green (foxtail, green; 125 g ai/ha): 65
- Plant response rating (scale of 0 to 100 where 0 is no effect and 100 is complete control) (lambsquarters; 125 g ai/ha): 85
- Plant response rating (scale of 0 to 100 where 0 is no effect and 100 is complete control) (lambsquarters; 250 g ai/ha): 85
- Lambsquarters plant response rating (0 to 100) (lambsquarters; 31 g ai/ha): 60
- Lambsquarters plant response rating (0 to 100) (lambsquarters; 62 g ai/ha): 75
- Plant response rating: Canarygrass (canarygrass; 16 g ai/ha): 45
- Plant response rating: Canarygrass (canarygrass; 31 g ai/ha): 55
- Plant response rating: Canarygrass (canarygrass; 62 g ai/ha): 60
- Plant response rating: Canarygrass (canarygrass; 125 g ai/ha): 70
- Plant response rating (0 to 100), Windgrass (windgrass; [1]): 0
- Plant response rating: Windgrass (windgrass; 62 g ai/ha): 65
- Plant response rating: Windgrass (windgrass; 125 g ai/ha): 100
- Plant response rating (0 to 100), Wheat, Winter (wheat, winter; [1]): 15
- Plant response rating: Wheat, Winter (wheat, winter; 62 g ai/ha): 20
- Plant response rating: Wheat, Winter (wheat, winter; 125 g ai/ha): 20
- Plant response rating (0 to 100), Wheat, Spring (wheat, spring; [1]): 15
- Plant response rating: Wheat, Spring (wheat, spring; 62 g ai/ha): 25
- Plant response rating: Wheat, Spring (wheat, spring; 125 g ai/ha): 15
- Plant response rating (scale of 0 to 100 where 0 is no effect and 100 is complete control) (galium; 125 g ai/ha): 50
- Plant response rating (scale of 0 to 100 where 0 is no effect and 100 is complete control) (galium; 250 g ai/ha): 90
- Galium plant response rating (0 to 100) (galium; 31 g ai/ha): 5
- Galium plant response rating (0 to 100) (galium; 62 g ai/ha): 30
- Velvetleaf plant response rating (0 to 100) (velvetleaf; 31 g ai/ha): 30
- Velvetleaf plant response rating (0 to 100) (velvetleaf; 62 g ai/ha): 45
- Plant response rating (scale of 0 to 100 where 0 is no effect and 100 is complete control) (velvetleaf; Velvetleaf, preemergence, 250 g ai/ha): 60
- Ragweed plant response rating (0 to 100) (ragweed; 31 g ai/ha): 5
- Ragweed plant response rating (0 to 100) (ragweed; 62 g ai/ha): 25
- Plant response rating (scale of 0 to 100 where 0 is no effect and 100 is complete control) (ragweed; 125 g ai/ha): 25
- Plant response rating (scale of 0 to 100 where 0 is no effect and 100 is complete control) (ragweed; 250 g ai/ha): 55
- Plant response rating (0 to 100), Oat, Wild (oat, wild; [1]): 30
- Plant response rating: Oat, Wild (oat, wild; 62 g ai/ha): 30
- Plant response rating: Oat, Wild (oat, wild; 125 g ai/ha): 35
- Plant response rating: Chickweed (chickweed; 16 g ai/ha): 55
- Plant response rating: Chickweed (chickweed; 31 g ai/ha): 60
- Plant response rating: Chickweed (chickweed; 62 g ai/ha): 70
- Plant response rating: Chickweed (chickweed; 125 g ai/ha): 90
- Plant response rating (0 to 100), Bromegrass, Down (bromegrass, down; [1]): 25
- Plant response rating: Bromegrass, Down (bromegrass, down; 31 g ai/ha): 40
- Plant response rating: Bromegrass, Down (bromegrass, down; 62 g ai/ha): 35
- Plant response rating: Bromegrass, Down (bromegrass, down; 125 g ai/ha): 40
- Plant response rating (0 to 100), Barley, Spring (barley, spring; [1]): 20
- Plant response rating: Barley, Spring (barley, spring; 31 g ai/ha): 25
- Plant response rating: Barley, Spring (barley, spring; 62 g ai/ha): 30
- Plant response rating: Barley, Spring (barley, spring; 125 g ai/ha): 35
- Plant response rating (0 to 100), Barley, Winter (barley, winter; [1]): 15
- Plant response rating: Barley, Winter (barley, winter; 31 g ai/ha): 15
- Plant response rating: Barley, Winter (barley, winter; 62 g ai/ha): 25
- Plant response rating: Barley, Winter (barley, winter; 125 g ai/ha): 25
- Plant response rating (scale of 0 to 100 where 0 is no effect and 100 is complete control) (foxtail, giant; 125 g ai/ha): 98
- Plant response rating (scale of 0 to 100 where 0 is no effect and 100 is complete control) (foxtail, giant; 250 g ai/ha): 100
- Foxtail, Giant plant response rating (0 to 100) (foxtail, giant; 31 g ai/ha): 80
- Foxtail, Giant plant response rating (0 to 100) (foxtail, giant; 62 g ai/ha): 95
- Plant response rating (scale of 0 to 100 where 0 is no effect and 100 is complete control) (barnyardgrass; 125 g ai/ha): 80
- Plant response rating (scale of 0 to 100 where 0 is no effect and 100 is complete control) (barnyardgrass; 250 g ai/ha): 85
- Barnyardgrass plant response rating (0 to 100) (barnyardgrass; 31 g ai/ha): 10
- Barnyardgrass plant response rating (0 to 100) (barnyardgrass; 62 g ai/ha): 45

From patent publication US10681909B2, “Herbicidal triazoles” (FMC Corporation, priority 2014, dated 2020)
